Where “and” joins values, the source holds several entries; their conditions need not be identical. Equal values may be shown once.
Tests used:
[1] = Solubility of dexamethasone in NaCl solution with and without heparin; format: physicochemical
[2] = Physicochemical characterisation of heparin solutions in water
Experimental: Tests for viscosity, surface tension and osmolality were carried out in triplicate. For pH and density single measurements were performed.

[3] = Laser diffraction of aerosol from heparin solutions nebulised with PARI eFlow; format: physicochemical
Experimental: There is a moderate increase from 1.25±0.01 to 1.99±0.02 mPa·s between 6 and 30 mg/mL and a strong increase to 8.9±0.08 mPa·s when the concentration is further increased to 150 mg/mL. The surface tension (nearly equal to that of water) remains constant between 6 and 30 mg/mL and increases only slightly (from 72.41±0.02 to 73.78±0.05 mN/m) between 30 and 150 mg/mL. As expected the osmolality increases with increasing concentration, going from 0.014±0.001 to 0.293±0.001 osmol/kg over the investigated concentration range. […] All formulations show a pH (between 5.97 and 6.50) which would be appropriate for inhalation (the allowed range according to the European Pharmacopoeia is pH 3.0-8.5). The heparin solutions were nebulised using a PARI eFlow® device configured with Head class 40, which typically results in droplet sizes from 4.0-4.9 μm when using dilute aqueous formulations. The properties of the resultant aerosol particles were measured using laser diffraction, and are compared with the results obtained for isotonic saline measured using the same nebuliser configuration in Table 2.

[4] = Particle size distribution of heparin solutions aerosolised with Aeroneb Go (HELOS KR particle sizer); format: physicochemical
Experimental: The particle size distribution of heparin solutions was measured after aerosolisation of the heparin solutions using the Aeroneb® Go nebuliser. Particle size measurements were made using the HELOS KR particle sizer device, INHALER module, and WINDOX 5.0 software from SympatecGmbH (Clausthal-Zellerfeld, Germany). The total volume of solution in the reservoir of the nebuliser was 6 mL: 1.5 mL heparin (Wokhardt, 25,000 IU/mL) with 4.5 mL 0.9% aqueous NaCl (final concentration of heparin=6250 IU/mL or 31.25 mg/mL; final concentration of NaCl=[…]). The viscosity of the solution was 1.7 mPa·s. The nebulisation time was 14 min (reservoir empty); particle size measurements were divided into 1 min intervals. The particle distribution is seen to be bimodal. The X50 is […] (mean±standard deviation), where 50% of the total number of the particles is in particles less than this size. […] Optical concentration (droplets in laser pathway) was used as an indication of nebulisation efficiency; this nebulisation efficiency was determined to be 76.91%±4.25%.
(§1) Aqueous solutions of unfractionated heparin as its sodium salt containing various concentrations of an added inorganic salt were also aerosolised using the Aeroneb® Go. Particle size measurements were made using the HELOS KR particle sizer device, INHALER module, and WINDOX 5.0 software from SympatecGmbH (Clausthal-Zellerfeld, Germany). The heparin sodium salt was obtained from pig intestinal mucosa (Calbiochem, molecular weight 12-15 kDa, 192 U/mg). The particle size distributions are shown in FIGS. 2-7 and the important parameters, quoted as mean values ±standard deviations, are summarised in Table 4 below.
A 40 mg/mL aqueous solution of heparin containing 140 mM NaCl was aerosolised using the Aeroneb® Go nebuliser in the absence and presence of salbutamol (a bronchodilator) and dexamethasone (a corticosteroid). Particle size measurements were made using the HELOS KR particle sizer device, INHALER module, and WINDOX 5.0 software from SympatecGmbH (Clausthal-Zellerfeld, Germany).

[5] = Viscosity of heparin salt solutions (BS/U-tube viscometer); format: physicochemical; conditions: 40 mg/mL heparin
Description: as §1

[6] = HPLC of unfractionated heparin before and after nebulisation with PARI eFlow; format: physicochemical; conditions: 0.25 mg/mL (50 U/mL) in water
Experimental: A solution of unfractionated heparin (diluted to 50 U/mL, i.e. 0.25 mg/mL, in ultra high quality water) was analysed by high performance liquid chromatography. HPLC analysis was performed using a […] ion-paring C8 column (Hichrom, Reading, UK), a Rheodyne 7725 syringe loading sample injector fitted with a 20 μL loop (Rheodyne, Cotati, CA, USA), a LKB2150 dual piston pump (LK Bromma, Swedon), a HP 1050CVW detector (Agilent, UK), a HP 3396A integrator (Agilent, UK) and a Rheodyne 25 μL capacity syringe was used to load a 20 μL sample into the injection port. HPLC conditions consisted of an ultraviolet wavelength selected at 232 nm. The flow rate was adjusted to 0.50 mL/min and a pressure of 50 bar was recorded. A mobile phase composed of 30% acetonitrile and 70% aqueous solution comprising 15 mM tetrabutylammonium hydroxide and 50 mM ammonium acetate in HPLC grade water, adjusted to pH 7 with acetic acid, was used. The resulting HPLC trace is shown as the left-hand trace in FIG. 11.
An identical sample of unfractionated heparin was nebulised using the PARI eFlow® device, and recollected. […] The resulting HPLC trace is shown as the right-hand trace in FIG. 11.

[7] = Anti-coagulant activity after nebulisation from PARI eFlow
Description: In an additional experiment, it was also observed that the anti-coagulant activity of the unfractionated heparin was retained after nebulisation from the PARI eFlow® device.

[8] = Viscosity of heparin salt solutions (BS/U-tube viscometer); format: physicochemical
[9] = in water; reference [7]; cited from earlier work
[10] = 31.25 mg/mL heparin, 154 mM NaCl, Aeroneb Go
[11] = 40 mg/mL heparin, 112 mM NaCl, 56 mM MgCl2, Aeroneb Go
[12] = 40 mg/mL heparin, 140 mM NaCl, Aeroneb Go
[13] = 40 mg/mL heparin, 168 mM NaCl, Aeroneb Go
[14] = 40 mg/mL heparin, 196 mM NaCl, Aeroneb Go
[15] = 40 mg/mL heparin, 210 mM NaCl, Aeroneb Go
[16] = 40 mg/mL heparin, 224 mM NaCl, Aeroneb Go
[17] = 40 mg/mL unfractionated heparin, 140 mM NaCl, 0.75 mg/mL dexamethasone, Aeroneb Go
[18] = 40 mg/mL unfractionated heparin, 140 mM NaCl, 0.83 mg/mL salbutamol, Aeroneb Go
[19] = 40 mg/mL unfractionated heparin, 140 mM NaCl, no second agent, Aeroneb Go

## C[C@@H]1C[C@H]2[C@@H]3CCC4=CC(=O)C=C[C@]4(C)[C@@]3(F)[C@@H](O)C[C@]2(C)[C@@]1(O)C(=O)CO [dexamethasone]
[1]; 0.25 mg/mL in 140 mM NaCl alone
  solubility (in words): not soluble
[1]; in 140 mM NaCl containing 40 mg/mL heparin
  solubility (in words): soluble

## heparin
[2]; 6 mg/mL heparin in water
  Viscosity: 1.25±0.01 mPa · s and 1.25 mPa · s
  density: 1.00 g/mL
  osmolality: 0.014±0.001 osmol/kg and 0.014 osmol/kg
  pH: 6.50
  surface tension: 72.58 mN/m
[2]; 30 mg/mL heparin in water
  Viscosity: 1.99±0.02 mPa · s and 1.99 mPa · s
  density: 1.01 g/mL
  osmolality: 0.056 osmol/kg
  pH: 6.01
  surface tension: 72.41±0.02 mN/m and 72.41 mN/m
[2]; 150 mg/mL heparin in water
  Viscosity: 8.9±0.08 mPa · s and 8.90 mPa · s
  density: 1.07 g/mL
  osmolality: 0.293±0.001 osmol/kg and 0.293 osmol/kg
  pH: 5.97
  surface tension: 73.78±0.05 mN/m and 73.78 mN/m
[3]; 6 mg/mL heparin
  MMD (median mass diameter): 4.6 μm
  RF (respirable fraction) [% <5 μm]: 57.9%
[3]; 30 mg/mL heparin
  MMD (median mass diameter): 4.4 μm
  RF (respirable fraction) [% <5 μm]: 63.0%
[4]; [10]
  X50: 3.45 ± 0.025 µm
  X90: less than 8.5 m
  particles within the respirable range of 1-5 μm: 57.87%
[4]; [11]
  Particles in 1-5 μm range: 58.46% and 58.46 ± 0.30%
  VMD (volume median diameter): 4.31 ± 0.05 μm
  X50: 3.49 ± 0.056 μm
[4]; [12]
  Particles in 1-5 μm range: 50.76% and 50.76 ± 0.63%
  VMD (volume median diameter): 4.80 ± 0.06 μm
  X50: 4.095 ± 0.044 μm
[4]; 40 mg/mL heparin, 140 mM NaCl, no second agent, Aeroneb Go (as restated in conclusions)
  X50: 3.98±0.03 μm
[4]; 40 mg/mL heparin, 140 mM NaCl, with salbutamol, Aeroneb Go (as restated in conclusions)
  VMD: 4.47 μm
[4]; [13]
  Particles in 1-5 μm range: 56.65% and 56.65 ± 0.47%
  VMD (volume median diameter): 4.41 ± 0.025 μm
  X50: 3.543 ± 0.049 μm
[4]; [14]
  Particles in 1-5 μm range: 48.62% and 48.62 ± 0.38%
  VMD (volume median diameter): 4.68 ± 0.02 μm
  X50: 3.978 ± 0.022 μm
[4]; [15]
  Particles in 1-5 μm range: 55% and 55 ± 0.24%
  VMD (volume median diameter): 4.55 ± 0.023 μm
  X50: 3.812 ± 0.027 μm
[4]; [16]
  Particles in 1-5 μm range: 57.02% and 57.02 ± 0.28%
  VMD (volume median diameter): 4.37 ± 0.032 μm
  X50: 3.51 ± 0.03 μm
[4]; [17]
  VMD: 4.61 ± 0.058 µm
  X50: 3.906±0.048 μm
  particles within the respirable range of 1-5 m: 49.954%
[4]; [18]
  VMD: 4.47 ± 0.054 µm
  X50: 3.546±0.045 μm
  particles within the respirable range of 1-5 m: 55.154%
[4]; [19]
  VMD: 4.64±0.033 μm
  X50: 3.98 ± 0.03 µm
  particles within the respirable range of 1-5 μm: 48.21%
[5]; 0 mM NaCl, 0 mM MgCl2
  Viscosity: 2.5 mPa · s
[5]; 112 mM NaCl, 56 mM MgCl2
  Viscosity: 2 mPa · s and 2.0 mPa · s
[5]; 140 mM NaCl
  Viscosity: 2.22 mPa · s
[5]; 168 mM NaCl
  Viscosity: 2.25 mPa · s
[5]; 196 mM NaCl
  Viscosity: 2.2 mPa · s
[5]; 210 mM NaCl
  Viscosity: 2.2 mPa · s
[5]; 224 mM NaCl
  Viscosity: 2 mPa · s and 2.0 mPa · s
[6]
  structural integrity / degradation on nebulisation (HPLC traces before vs after): does not lead to degradation
[7]
  anti-coagulant activity after nebulisation: retained
[8]; 31.25 mg/mL (6250 IU/mL) heparin, 154 mM NaCl
  Viscosity: 1.7 mPa·s
[8]; 40 mg/mL unfractionated heparin, 140 mM NaCl (Example 3)
  Viscosity: 2.2 mPa·s
[9]
  intrinsic viscosity: 80.6 mL/g

From patent publication US12083268B2, “Delivery device and formulation” (Ockham Biotech Limited, priority 2016, dated 2024)
